pIC50, pKi: −log10 of the molar value. “Also recorded” adds a separate entry of the source. Read-outs that look alike come from different tables or passages of the source.
Tests used:
SHP1 = biological target: T1, SHP1 (Homo sapiens, UniProt P29350); test: SHP1-catalyzed hydrolysis of 4-MUP in the presence of terpenoids; format: biochemical, H. sapiens
T1 construct: made in house; host or cells: E. coli BL21 (DE3)
Protocol: (§1) Enzyme kinetics. To examine terpenoid-mediated inhibition, we measured PTP-catalyzed hydrolysis of p-nitrophenyl phosphate (pNPP) or 4-methylumbelliferyl phosphate (4-MUP, used when KM for pNPP was large) in the presence of various concentrations of terpenoids. Each reaction included PTP (0.05 μM PTP1B/TCPTP or 0.1 μM SHP1/SHP2 in 50 mM HEPES, 0.5 mM TCEP, 50 μg/ml BSA), pNPP (0.33, 0.67, 2, 5, 10, and 15 mM) or 4-MUP (0.13, 0.27, 0.8, 2.27, 2.93, 4.53, 7.07, and 8 mM), inhibitor (with concentrations listed in the figures), buffer (50 mM HEPES pH=7.3, 50 μg/ml BSA), and DMSO at 10% v/v. We monitored the formation of p-nitrophenol by measuring absorbance at 405 nm every 10 seconds for 5 minutes on a SpectraMax M2 plate reader and the formation of 4-methylumbelliferyl by measuring fluorescence at 450 nm (370 nm ex, 435 nm cutoff, medium gain).
We used a custom MATLAB script to process all raw kinetic data. This script removed all concentration values that fell outside of either (i) the range of our standard curve (absorbance/fluorescence vs. μM; FIG. 39) or (ii) the initial rate regime (>10% of the pNPP or 4-MUP concentration used in the assay). When this step reduced kinetic dataset to fewer than ten points, we re-measured those datasets to collect at least ten. We fit final datasets, in turn, with a linear regression model (using Matlab's backslash operator). […]

TCPTP1-281 = test: pNPP hydrolysis by TC-PTP lacking the α7-equivalent region; format: biochemical, H. sapiens; conditions: for change in PTP1B/TC-PTP selectivity on removal of the α7 helix (or equivalent) from both enzymes: PTP1B1-281 and TCPTP1-281 vs full constructs; for pKi: TCPTP1-281
Protocol: as §1
(§2) We used a custom MATLAB script to process all raw kinetic data. This script removed all concentration values that fell outside of either (i) the range of our standard curve (absorbance/fluorescence vs. μM; FIG. 39) or (ii) the initial rate regime (>10% of the pNPP or 4-MUP concentration used in the assay). When this step reduced kinetic dataset to fewer than ten points, we re-measured those datasets to collect at least ten. We fit final datasets, in turn, with a linear regression model (using Matlab's backslash operator).
(§3) We evaluated kinetic models in three steps: (i) We fit initial-rate measurements collected in the absence and presence of inhibitors to Michaelis-Menten and inhibition models, respectively (here, we used the nlinfit and fminsearch functions from MATLAB; TABLE 12). (ii) We used an F-test to compare the mixed model to the single-parameter model with the least sum squared error (here, we used the fedf function from MATLAB to assign p-values), and we accepted the mixed model when p<0.05. (iii) We used the Akaike's Information Criterion (AIC) to compare the best-fit single parameter model to each alternative single parameter model, and we accepted the “best-fit” model when the difference in AIC (Δi) exceed 5 for all comparisons.^78 We note: For AD, AB, and (+) 1-(10),4-cadinadiene this criterion was not met; both noncompetitive and uncompetitive models, however, yielded indistinguishable ICso's.
(§4) We used the MATLAB function “nlparci” to determine the confidence intervals of kinetic parameters, and we propagated those intervals to estimate corresponding confidence intervals for each IC50.

[1] = biological target: T2, PTP1B1-281 (PTP1B282 in FIG. 12) (Homo sapiens, UniProt P18031); test: pNPP hydrolysis by PTP1B lacking the α7 helix; format: biochemical, H. sapiens; conditions: for pKi: PTP1B1-281
T2 construct: made in house; host or cells: E. coli BL21 (DE3)
T2 sequence (P18031 1-281): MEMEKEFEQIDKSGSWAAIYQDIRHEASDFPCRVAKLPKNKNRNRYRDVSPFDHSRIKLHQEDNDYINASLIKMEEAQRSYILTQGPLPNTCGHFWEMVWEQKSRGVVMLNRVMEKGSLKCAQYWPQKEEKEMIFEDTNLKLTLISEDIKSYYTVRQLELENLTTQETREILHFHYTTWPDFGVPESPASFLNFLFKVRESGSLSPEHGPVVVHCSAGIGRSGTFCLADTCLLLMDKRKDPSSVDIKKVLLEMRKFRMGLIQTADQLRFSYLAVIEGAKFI
Protocol: as §1, §2, §3, §4

[2] = tested on: insulin receptor (IR) phosphorylation (PTP1B-mediated) in HEK293T/17 cells; test: ELISA of insulin receptor (IR) phosphorylation in HEK293T/17 cells; format: cell-based; conditions: for IR phosphorylation (ELISA signal): 3% DMSO, 10 minutes, starved HEK293T/17 cells, vs 3% DMSO control; for Δμ, null hypothesis compound-(−) = 0: difference of means vs negative control (−)
Text: Analysis of PTP1B inhibition in HEK293TCells. We prepared HEK293T/17 cells for an enzyme-linked immunosorbent assay (ELISA) by growing them in 75 cm^2 culture flasks (Corning) with DMEM media supplemented with 10% FBS, 100 units/ml penicillin, and 100 units/ml streptomycin. We replaced the media every day for 3-5 days until the cells reached 80-100% confluency.
We measured the influence of inhibitors on insulin receptor (IR) phosphorylation by using an IR-specific ELISA (FIG. 35). Briefly, we starved cells for 48 hours in FBS-free media and incubated the with inhibitors (all at 3% DMSO) for 10 minutes. After incubation, we lysed cells with lysis buffer (9803, Cell Signaling Technology) supplemented with 1× halt phosphatase inhibitor cocktail and 1× halt protease inhibitor cocktail (Thermo Fisher Scientific) for 10 min, pelleted the cell debris, and used the lysis buffer to dilute each sample to 60 mg/ml total protein. We measured IR phosphorylation in subsequent dilutions of the 60 mg/ml samples with the PathScan® Phospho-Insulin Receptor β (panTyr) Sandwich ELISA Kit (Cell Signaling Technology; #7082).
Statistical analysis and reproducibility. We determined statistical significance (FIG. 23H) with a two-tailed Student's t-test (details in TABLE 14), and we used an F-test to compare one- and two-parameter models of inhibition (TABLE 12).

PTP1B = biological target: T3, PTP1B (Homo sapiens, UniProt P18031); test: Ligand efficiency (TABLE 15); parameters: species or system H. sapiens; conditions: for pIC50: PTP1B, the patent's own terpenoid inhibitors
T3 sequence (P18031 1-321 limits assumed): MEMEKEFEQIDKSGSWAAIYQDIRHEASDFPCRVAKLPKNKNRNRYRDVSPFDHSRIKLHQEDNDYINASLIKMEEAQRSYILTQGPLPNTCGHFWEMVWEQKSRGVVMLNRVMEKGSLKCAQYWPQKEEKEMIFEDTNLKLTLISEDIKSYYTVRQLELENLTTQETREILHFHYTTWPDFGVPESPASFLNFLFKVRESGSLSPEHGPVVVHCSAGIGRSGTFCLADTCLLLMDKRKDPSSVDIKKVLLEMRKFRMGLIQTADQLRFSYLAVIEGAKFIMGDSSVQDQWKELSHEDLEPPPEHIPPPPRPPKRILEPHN

[3] = competitive model of inhibition, read-out: Fit par. Ki, competitive model
[4] = mixed model, uncompetitive constant, read-out: Fit par. Ki,u, mixed model
[5] = noncompetitive model of inhibition, read-out: Fit par. Ki, noncompetitive model
[6] = uncompetitive model of inhibition, read-out: Fit par. Ki, uncompetitive model
[7] = mixed model, competitive constant, read-out: Fit par. Ki,c, mixed model
[8] = FIG. 3h, t-test, unequal variance

T1 sequence (P29350 whole entry): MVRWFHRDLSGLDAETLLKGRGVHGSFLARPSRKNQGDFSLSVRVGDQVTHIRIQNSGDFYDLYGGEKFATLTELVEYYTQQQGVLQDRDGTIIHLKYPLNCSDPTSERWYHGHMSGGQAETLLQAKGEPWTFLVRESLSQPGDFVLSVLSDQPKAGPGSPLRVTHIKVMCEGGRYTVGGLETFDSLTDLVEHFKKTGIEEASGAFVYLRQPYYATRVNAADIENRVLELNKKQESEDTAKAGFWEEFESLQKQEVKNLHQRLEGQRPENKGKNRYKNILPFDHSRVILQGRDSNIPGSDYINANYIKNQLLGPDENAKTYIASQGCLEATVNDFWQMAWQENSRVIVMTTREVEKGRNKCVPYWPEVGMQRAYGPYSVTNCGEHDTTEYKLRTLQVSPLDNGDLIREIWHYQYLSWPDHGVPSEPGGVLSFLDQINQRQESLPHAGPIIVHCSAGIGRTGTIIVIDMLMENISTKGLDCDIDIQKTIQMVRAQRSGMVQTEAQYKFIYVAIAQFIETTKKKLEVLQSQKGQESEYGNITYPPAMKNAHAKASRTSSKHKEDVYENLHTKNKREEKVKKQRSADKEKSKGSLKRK

C=C(C)[C@@H]1CC[C@@H](C)[C@@H]2CCC(C)=C[C@@H]21 [amorphadiene]
inhibition of SHP1 (SHP1): too weak to measure | change in PTP1B/TC-PTP selectivity on removal of the α7 helix (or equivalent) from both enzymes (TCPTP1-281; listed as AD): four-fold; also recorded: reduces the selectivity | pKi (TCPTP1-281; [3]): 4.06 | pKi (TCPTP1-281; [4]): 3.45 | pKi (TCPTP1-281; [5]): 3.40 | pKi (TCPTP1-281; [6]): 3.45 | pKi [1, 3]: 4.42 | pKi [1, 7]: 3.80 | pKi [1, 4]: 3.57 | pKi [1, 5]: 3.61 | pKi [1, 6]: 3.68 | potency against PTP1B282 (no α7 helix) relative to PTP1B321 ([1]; pNPP, less potent on PTP1B282): ~ four-fold | IR phosphorylation (ELISA signal) ([2]; 930 μM): inhibit PTP1B inside of a HEK293T/17 cell; also recorded: can increase IR phosphorylation over a negative control | IR phosphorylation (ELISA signal) ([2]; 930 μM, listed as AD): increased IR phosphorylation over a negative control | IR phosphorylation (ELISA signal) ([2]; 930 μM, listed as Amorphadiene): stimulate IR phosphorylation | Δμ, null hypothesis AD-DHA = 0 ([2]; difference of means AD vs DHA, FIG. 3h, t-test, unequal variance): 0.124 | Δμ, null hypothesis compound-(−) = 0 [2, 8]: 0.212 | ligand efficiency (PTP1B; (−2.303RT)/HAC * log(IC50)): 0.39 kcal/mol-atom | pIC50 (PTP1B): 4.30 | ligand efficiency (PTP1B; TABLE 15): high

CC(C)=CCC=C(C)C1CC=C(C)CC1 (stereo not drawn) [α-bisabolene]
inhibition of SHP1 (SHP1): low potency | change in PTP1B/TC-PTP selectivity on removal of the α7 helix (or equivalent) from both enzymes (TCPTP1-281; listed as AB): insensitive and not | pKi (TCPTP1-281; [3]): 4.86 | pKi (TCPTP1-281; [7]): 2.44 | pKi (TCPTP1-281; [4]): 4.16 | pKi (TCPTP1-281; [5]): 4.12 | pKi (TCPTP1-281; [6]): 4.16 | pKi [1, 3]: 5.19 | pKi [1, 7]: 4.41 | pKi [1, 4]: 4.32 | pKi [1, 5]: 4.33 | pKi [1, 6]: 4.40 | IR phosphorylation (ELISA signal) ([2]; 405 μM): stimulate IR phosphorylation; also recorded: can increase IR phosphorylation over a negative control | IR phosphorylation (ELISA signal) ([2]; 405 μM, listed as AB): increased IR phosphorylation over a negative control | Δμ, null hypothesis AB-ABOL = 0 ([2]; difference of means AB vs ABOL, FIG. 3h, t-test, unequal variance): 0.309 | Δμ, null hypothesis compound-(−) = 0 [2, 8]: 0.310 | ligand efficiency (PTP1B; (−2.303RT)/HAC * log(IC50)): 0.44 kcal/mol-atom | pIC50 (PTP1B): 4.89 | ligand efficiency (PTP1B; TABLE 15): high

Reference: US12729458B2, “Discovery and evolution of biologically active metabolites” (The Regents of the University of Colorado, a Body Corporate, priority 2020, dated 2026)
